System: cirrhotic patients defined as Child-Pugh class A and B with manifestation of CHE
Experiment: Continuous Reaction Time (CRT) test, clinical Phase II study part D (EudraCT 2016-003651-30), 21 days extended treatment
Type: in vivo, human
Description: Protocol EudraCT 2016-003651-30 was a randomized, double-blinded, placebo-controlled study consisting of four parts, where part D (partly) of the study is relevant to the herein disclosed and claimed invention. The aim of the study was to assess the potential efficacy (Part D) of the compound golexanolone in patients with cirrhosis. The study was performed at sites in Sweden, Denmark, Ukraine, Russia, Hungary and Poland.
Extended treatment (21 consecutive days) in cirrhotic patients defined as Child-Pugh class A and B with manifestation of CHE, was performed.
An objective of study part D (phase IIa, extended treatment) was to assess preliminary efficacy of treatment with the compound golexanolone on cognitive function, as measured by the Continuous Reaction time (CRT) test.
In order to be eligible for the study, patients required evidence of cognitive impairment defined as a CRT index <1.9 at screening. CRT was re-assessed at baseline, prior to dosing but was not required to be abnormal at baseline.
Exclusion criteria included uncontrolled infection, active gastrointestinal bleeding, a history of bleeding requiring transfusion, transjugular intrahepatic portosystemic shunt placement within the past 90 days, hepatorenal syndrome, uncontrolled ascites, current malignancy, evidence of overt HE at screening or within 7 days of screening, use of psychoactive drugs, or any other psychiatric or medical comorbidity judged by the Investigator to preclude safe participation and/or confound the interpretation of study results.
Alcohol consumption was not allowed within two days prior to screening or for 24 hours prior to all study visits. Moreover, subjects were required to have a negative alcohol breath test at screening and subsequent study visits, including Part D study days 10 and 21 at which cognitive function was measured.
The Investigational Medicinal Product (IMP) is self-administered by the patient at home, except for the study days of visiting the clinic (Days 1, 10 and 21), when the IMP is administered under surveillance. Assistance of a dedicated care-giver or family members/friends is mandatory during the extended treatment period. Intake of study medication, changes in concomitant medications and medical events between visits are registered in a diary on a daily basis by the patient/care-giver and a care-giver diary is completed. Efficacy parameters are evaluated. If assessed as required for practical reasons, a patient can be confined to the research clinic from the evening before dosing on Day 21. A follow-up visit is performed 5-10 days after (last) IMP administration. Change in CRT index from baseline (day 1) to 10 and 21 days respectively after start of treatment, as
compared to placebo, is evaluated.
The Investigational Medical Product (clinical formulation) is supplied as a lipid semi-solid filled in a gelatine capsule for oral administration. For the present study, each capsule contains 10 mg golexanolone. The excipient is a mixture of mono -and diglycerides of capric/caprylic glycerides (Imwitor® 742), which is of pharmacopoeia quality.
The Investigational Medical Product golexanolone is administered every twelve (12) hours (i. e. twice daily) for 21 consecutive days.
10 mg golexanolone BID (i.e. 20 mg per day) in combination with Standard of Care therapy; or 40 mg golexanolone BID (i.e. 80 mg per day) in combination with Standard of Care therapy; or 80 mg golexanolone BID (i.e. 160 mg per day) in combination with Standard of Care therapy; or placebo BID in combination with Standard of Care therapy.
Standard of Care therapy may be any one of an oral antioxidant, fluvoxamine, fluoxetine, ondansetron, colchicine, UDCA (ursodeoxycholic acid), OCA (obeticholic acid), ciclosporin, nalmefene, modafinil, rituximab, lactulose, rifaximin, propranolol, furosemide, methotrexate; or any combination thereof.

SMILES: C#C[C@]1(O)CC[C@@]2(C)C(CC[C@@H]3[C@@H]2CC[C@]2(C)/C(=N/O)CC[C@@H]32)C1 (stereo partly drawn) [Golexanolone, 3α-ethynyl-3β-hydroxyandrostan-17-one oxime]
- Change in CRT compared to baseline (36 patients with abnormal CRT (<1.9) at baseline, 10 mg BID oral with Standard of Care, Day 10, N = 8): 0.3504
- Change in CRT compared to baseline (36 patients with abnormal CRT (<1.9) at baseline, 10 mg BID oral with Standard of Care, Day 21, N = 8): 0.4166
- Change in CRT compared to baseline (36 patients with abnormal CRT (<1.9) at baseline, 40 mg BID oral with Standard of Care, Day 10, N = 10): 0.3035
- Change in CRT compared to baseline (36 patients with abnormal CRT (<1.9) at baseline, 40 mg BID oral with Standard of Care, Day 21, N = 10): 0.4276
- Change in CRT compared to baseline (36 patients with abnormal CRT (<1.9) at baseline, 80 mg BID oral with Standard of Care, Day 10, N = 9): 0.5109
- Change in CRT compared to baseline (36 patients with abnormal CRT (<1.9) at baseline, 80 mg BID oral with Standard of Care, Day 21, N = 9): 0.5219
- Change in CRT compared to baseline (all 45 patients with abnormal (<1.9) or normal CRT at baseline, 10 mg BID oral with Standard of Care, Day 10, N = 10): 0.2762
- Change in CRT compared to baseline (all 45 patients with abnormal (<1.9) or normal CRT at baseline, 10 mg BID oral with Standard of Care, Day 21, N = 10): 0.2792
- Change in CRT compared to baseline (all 45 patients with abnormal (<1.9) or normal CRT at baseline, 40 mg BID oral with Standard of Care, Day 10, N = 10): 0.3035
- Change in CRT compared to baseline (all 45 patients with abnormal (<1.9) or normal CRT at baseline, 40 mg BID oral with Standard of Care, Day 21, N = 10): 0.4276
- Change in CRT compared to baseline (all 45 patients with abnormal (<1.9) or normal CRT at baseline, 80 mg BID oral with Standard of Care, Day 10, N = 13): 0.4593
- Change in CRT compared to baseline (all 45 patients with abnormal (<1.9) or normal CRT at baseline, 80 mg BID oral with Standard of Care, Day 21, N = 13): 0.3505

Reference: US20230134958A1, “NEW MEDICAL TREATMENT” (Umecrine Cognition AB, priority 2021, published 2023)
